Reference: US10160726B2, “Quinolone derivatives as antibacterials” (priority 2014, dated 2018)
≈ marks a conversion by molar mass, not a printed value. Read-outs that look alike come from different tables or passages of the source.

What was measured:
Type in all cases: cell-based
[1] = test system: E. coli ATCC 25922 (NB27001); experiment: MIC, broth microdilution (CLSI); conditions: Escherichia coli, read-out: Antibacterial activity (MIC) NB27001
[2] = test system: E. coli NB27177 (efflux deficient CGSC 11430, ΔtolC732::kan); experiment: microbe, parasite or virus in culture; conditions: Escherichia coli, 20 h, read-out: Antibacterial activity (MIC) NB27177
[3] = test system: P. aeruginosa NB52019 (wild-type PAO1); experiment: MIC, broth microdilution (CLSI)
[4] = test system: P. aeruginosa NB52023 (efflux deficient K1542, ΔmexX ΔmexB); experiment: microbe, parasite or virus in culture; conditions: Pseudomonas aeruginosa, 20 h, read-out: Antibacterial activity (MIC) NB52023
[5] = test system: P. aeruginosa NB52023-CDK0006 (gyrA T83I, parC S87L); experiment: microbe, parasite or virus in culture; conditions: Pseudomonas aeruginosa, 20 h, read-out: Antibacterial activity (MIC) NB52023-CDK0006
[6] = test system: S. aureus ATCC 29213 (NB01001); experiment: MIC, broth microdilution (CLSI); conditions: Staphylococcus aureus, read-out: Antibacterial activity (MIC) NB01001
[7] = test system: S. aureus NB01006-AVR005 (gyrA S84L, grlA S80F, grlB E471K); experiment: microbe, parasite or virus in culture; conditions: Staphylococcus aureus, 20 h, read-out: Antibacterial activity (MIC) NB01006-AVR005
[8] = ATCC25922, E. coli ATCC 25922, 35° C., 20 hours
[9] = Pseudomonas aeruginosa, PAO1, 20 h; read-out: Antibacterial activity (MIC) NB52019
[10] = ATCC29213, S. aureus ATCC 29213, 35° C., 20 hours

Row | Structure (SMILES) | MIC [1, 8] [µg/mL] | MIC [2] [µg/mL] | MIC [3, 9] [µg/mL] | MIC [4] [µg/mL] | MIC [5] [µg/mL] | MIC [6, 10] [µg/mL] | MIC [7] [µg/mL] | MIC ([1]; ATCC25922, 20 h) [µg/mL] | MIC ([3]; Pseudomonas aeruginosa, PAO1, 20 h, read-out: Antibacterial activity (MIC) NB52019) [µg/mL] | MIC ([6]; ATCC29213, 20 h) [µg/mL]
1 | Cc1c(N2CC[C@@H]([C@H](C)N)C2)c(F)cc2c(CO)cc(=O)n(C3CC3)c12 [Example 47, 7-((R)-3-((S)-1-aminoethyl)pyrrolidin-1-yl)-1-cyclopropyl-6-fluoro-4-(hydroxymethyl)-8-methylquinolin-2(1H)-one] | 16 (≈ 44.5 µM) | 0.25 (≈ 0.696 µM) | 16 (≈ 44.5 µM) | 4 (≈ 11.1 µM) | 8 (≈ 22.3 µM) | 0.25 (≈ 0.696 µM) | 0.25 (≈ 0.696 µM) |  |  | 
2 | COCc1cc(=O)n(C2CC2)c2c(C)c(N3CC[C@@H]([C@H](C)N)C3)c(F)cc12 [Example 48, 7-((R)-3-((S)-1-aminoethyl)pyrrolidin-1-yl)-1-cyclopropyl-6-fluoro-4-(methoxymethyl)-8-methylquinolin-2(1H)-one] | 8 (≈ 21.4 µM) | 0.06 (≈ 0.161 µM) | 32 (≈ 85.7 µM) | 16 (≈ 42.8 µM) | 16 (≈ 42.8 µM) | 0.125 (≈ 0.335 µM) | 0.125 (≈ 0.335 µM) |  |  | 
3 | Cc1c(N2CC[C@@H]([C@H](C)N)C2)c(F)cc2c(OCCN(C)C)cc(=O)n(C3CC3)c12 [Example 49, 7-((R)-3-((S)-1-aminoethyl)pyrrolidin-1-yl)-1-cyclopropyl-4-(2-(dimethylamino)ethoxy)-6-fluoro-8-methylquinolin-2(1H)-one] |  | 0.06 (≈ 0.144 µM) |  | 4 (≈ 9.6 µM) | 8 (≈ 19.2 µM) |  | 0.25 (≈ 0.6 µM) | 1 (≈ 2.4 µM) | 8 (≈ 19.2 µM) | 0.125 (≈ 0.3 µM)
4 | CC(=O)N[C@@H](C)[C@@H]1CCN(c2c(F)cc3c(OCCN(C)C)cc(=O)n(C4CC4)c3c2C)C1 [Example 50, N—((S)-1-((R)-1-(1-cyclopropyl-4-(2-(dimethylamino)ethoxy)-6-fluoro-8-methyl-2-oxo-1,2-dihydroquinolin-7-yl)pyrrolidin-3-yl)ethyl)acetamide] | 32 (≈ 69.8 µM) | 0.125 (≈ 0.273 µM) | > 32 | > 32 | > 32 | 1 (≈ 2.18 µM) | 2 (≈ 4.36 µM) |  |  | 
5 | Cc1c(N2CC[C@@H]([C@H](C)N)C2)c(F)cc2c(OCCN)cc(=O)n(C3CC3)c12 [Example 51, 4-(2-aminoethoxy)-7-((R)-3-((S)-1-aminoethyl)pyrrolidin-1-yl)-1-cyclopropyl-6-fluoro-8-methylquinolin-2(1H)-one] | 2 (≈ 5.15 µM) | 0.06 (≈ 0.154 µM) | 4 (≈ 10.3 µM) | 2 (≈ 5.15 µM) | 2 (≈ 5.15 µM) | 0.5 (≈ 1.29 µM) | 0.5 (≈ 1.29 µM) |  |  | 
6 | Cc1c(N2CC[C@@H]([C@H](C)N)C2)c(F)cc2c(OCCNC(=N)N)cc(=O)n(C3CC3)c12 [Example 53, 1-(2-((7-((R)-3-((S)-1-aminoethyl)pyrrolidin-1-yl)-1-cyclopropyl-6-fluoro-8-methyl-2-oxo-1,2-dihydroquinolin-4-yl)oxy)ethyl)guanidine] | 4 (≈ 9.29 µM) | 0.125 (≈ 0.29 µM) | 16 (≈ 37.2 µM) | 4 (≈ 9.29 µM) | 4 (≈ 9.29 µM) | 0.5 (≈ 1.16 µM) | 0.5 (≈ 1.16 µM) |  |  | 
7 | CC(=O)NCCOc1cc(=O)n(C2CC2)c2c(C)c(N3CC[C@@H]([C@H](C)N)C3)c(F)cc12 [Example 54, N-(2-((7-((R)-3-((S)-1-aminoethyl)pyrrolidin-1-yl)-1-cyclopropyl-6-fluoro-8-methyl-2-oxo-1,2-dihydroquinolin-4-yl)oxy)ethyl)acetamide] | 32 (≈ 74.3 µM) | 4 (≈ 9.29 µM) | 32 (≈ 74.3 µM) | > 32 | > 32 | 8 (≈ 18.6 µM) | 4 (≈ 9.29 µM) |  |  | 
8 | Cc1c(N2CC[C@H](O)C2)c(F)cc2c(OCCN(C)C)cc(=O)n(C3CC3)c12 [Example 55, (S)-1-cyclopropyl-4-(2-(dimethylamino)ethoxy)-6-fluoro-7-(3-hydroxypyrrolidin-1-yl)-8-methylquinolin-2(1H)-one] | 8 (≈ 20.5 µM) | 0.125 (≈ 0.321 µM) | > 32 | 32 (≈ 82.2 µM) | 32 (≈ 82.2 µM) | 0.5 (≈ 1.28 µM) | 0.5 (≈ 1.28 µM) |  |  | 
9 | Cc1c(N2CC[C@@H]([C@H](C)N)C2)c(F)cc2c(OCC(N)=O)cc(=O)n(C3CC3)c12 [Example 56, 2-((7-((R)-3-((S)-1-aminoethyl)pyrrolidin-1-yl)-1-cyclopropyl-6-fluoro-8-methyl-2-oxo-1,2-dihydroquinolin-4-yl)oxy)acetamide] | 32 (≈ 79.5 µM) | 2 (≈ 4.97 µM) | > 32 | 16 (≈ 39.8 µM) | > 32 | 4 (≈ 9.94 µM) | 4 (≈ 9.94 µM) |  |  | 
10 | Cc1c(N2CC[C@@H]([C@H](C)N)C2)c(F)cc2c(OCCCC#N)cc(=O)n(C3CC3)c12 [Example 57, 4-((7-((R)-3-((S)-1-aminoethyl)pyrrolidin-1-yl)-1-cyclopropyl-6-fluoro-8-methyl-2-oxo-1,2-dihydroquinolin-4-yl)oxy)butanenitrile] | 32 (≈ 77.6 µM) | 0.25 (≈ 0.606 µM) | > 32 | 16 (≈ 38.8 µM) | > 32 | 0.25 (≈ 0.606 µM) | 0.25 (≈ 0.606 µM) |  |  | 
11 | Cc1c(N2CC[C@@H]([C@H](C)N)C2)c(F)cc2c(OCCC/C(N)=N\O)cc(=O)n(C3CC3)c12 [Example 58, 4-((7-((R)-3-((S)-1-aminoethyl)pyrrolidin-1-yl)-1-cyclopropyl-6-fluoro-8-methyl-2-oxo-1,2-dihydroquinolin-4-yl)oxy)-N′-hydroxybutanimidamide] | 32 (≈ 71.8 µM) | 1 (≈ 2.24 µM) | > 32 | 32 (≈ 71.8 µM) | 32 (≈ 71.8 µM) | 4 (≈ 8.98 µM) | 2 (≈ 4.49 µM) |  |  | 
12 | Cc1c(N2CC[C@@H]([C@H](C)N)C2)c(F)cc2c(OCCCC(=O)NO)cc(=O)n(C3CC3)c12 [Example 60, 4-((7-((R)-3-((S)-1-aminoethyl)pyrrolidin-1-yl)-1-cyclopropyl-6-fluoro-8-methyl-2-oxo-1,2-dihydroquinolin-4-yl)oxy)-N-hydroxybutanamide] | 32 (≈ 71.7 µM) | 1 (≈ 2.24 µM) | > 32 | > 32 | > 32 | 8 (≈ 17.9 µM) | 4 (≈ 8.96 µM) |  |  | 
13 | Cc1c(N2CC[C@@H]([C@H](C)N)C2)c(F)cc2c(OCCCC(=O)O)cc(=O)n(C3CC3)c12 [Example 61, 4-((7-((R)-3-((S)-1-aminoethyl)pyrrolidin-1-yl)-1-cyclopropyl-6-fluoro-8-methyl-2-oxo-1,2-dihydroquinolin-4-yl)oxy)butanoic acid] | 32 (≈ 74.2 µM) | > 32 | 32 (≈ 74.2 µM) | > 32 | > 32 | > 32 | > 32 |  |  | 
14 | Cc1c(N2CC[C@@H]([C@H](C)N)C2)c(F)cc2c(OCCCc3n[nH]c(=O)o3)cc(=O)n(C3CC3)c12 [Example 65, 5-(3-((7-((R)-3-((S)-1-aminoethyl)pyrrolidin-1-yl)-1-cyclopropyl-6-fluoro-8-methyl-2-oxo-1,2-dihydroquinolin-4-yl)oxy)propyl)-1,3,4-oxadiazol-2(3H)-one] | 32 (≈ 67.9 µM) | 4 (≈ 8.48 µM) | > 32 | > 32 | > 32 | 4 (≈ 8.48 µM) | 2 (≈ 4.24 µM) |  |  | 
15 | Cc1c(N2CC[C@@H]([C@H](C)N)C2)c(F)cc2c(OCCNS(C)(=O)=O)cc(=O)n(C3CC3)c12 [Example 66, N-(2-((7-((R)-3-((S)-1-aminoethyl)pyrrolidin-1-yl)-1-cyclopropyl-6-fluoro-8-methyl-2-oxo-1,2-dihydroquinolin-4-yl)oxy)ethyl)methanesulfonamide] | 32 (≈ 68.6 µM) | 2 (≈ 4.29 µM) | > 32 | > 32 | > 32 | 4 (≈ 8.57 µM) | 4 (≈ 8.57 µM) |  |  | 
16 | COc1cc(=O)n(C2CC2)c2c(C)c(N3CC[C@@H]([C@H](C)N)C3)c(F)cc12 [Example 67, 7-((R)-3-((S)-1-aminoethyl)pyrrolidin-1-yl)-1-cyclopropyl-6-fluoro-4-methoxy-8-methylquinolin-2(1H)-one] | 8 (≈ 22.3 µM) | 0.06 (≈ 0.167 µM) | 32 (≈ 89 µM) | 8 (≈ 22.3 µM) | 16 (≈ 44.5 µM) | 0.06 (≈ 0.167 µM) | 0.06 (≈ 0.167 µM) |  |  | 
17 | COc1cc(=O)n(C2CC2)c2c(C)c(N3CC[C@@H]([C@H](C)N)C3)ccc12 [Example 68, 7-((R)-3-((S)-1-aminoethyl)pyrrolidin-1-yl)-1-cyclopropyl-4-methoxy-8-methylquinolin-2(1H)-one] | 32 (≈ 93.7 µM) | 0.25 (≈ 0.732 µM) | > 32 | > 32 | > 32 | 0.5 (≈ 1.46 µM) | 1 (≈ 2.93 µM) |  |  | 
18 | COc1cc(=O)n(C2CC2)c2c(C)c(-c3ccc(N)nc3)ccc12 [Example 69, 7-(6-aminopyridin-3-yl)-1-cyclopropyl-4-methoxy-8-methylquinolin-2(1H)-one] | 32 (≈ 99.6 µM) | 0.5 (≈ 1.56 µM) | > 32 | > 32 | > 32 | 2 (≈ 6.22 µM) | 2 (≈ 6.22 µM) |  |  | 
19 | COc1c(C)c(=O)n(C2CC2)c2c(C)c(-c3ccc(N)nc3)ccc12 [Example 70, 7-(6-aminopyridin-3-yl)-1-cyclopropyl-4-methoxy-3,8-dimethylquinolin-2(1H)-one] | 32 (≈ 95.4 µM) | 2 (≈ 5.96 µM) | 32 (≈ 95.4 µM) | > 32 | > 32 | 16 (≈ 47.7 µM) | 4 (≈ 11.9 µM) |  |  | 
